For data set [1] the following is noted: result in words, compared with LL 1656; cited from earlier work.
Data set [2] can be described thus: Solubility in water (description of the isolated product). The data set is classed as physicochemical. The conditions noted are these: result in words.
In data set [3] the test system is chien mâle anesthésié au nembutal. The data set can be described thus: Peripheral vasodilator properties, intravenous administration in the anaesthetised dog. Format: in vivo. On the procedure: (§1) Les propriétés vasodilatatrices périphériques ont été étudiées chez le chien mâle anesthésié au nembutal (6 animaux par dose et par produit). Les produits à comparer sont administrés en solution dans du sérum physiologique sous un volume de 6 ml/animal par voie intraveineuse (perfusion de 1 ml/min) et sous un volume de 10 ml/animal par voie intraduodénale. Par rapport aux témoins (les mêmes animaux ne recevant que le sérum physiologique), on mesure trois paramètres : la pression artérielle moyenne (exprimée en mm Hg; mm Hg correspond à 1,333224 x 10^2 Pa), la fréquence cardiaque (exprimée en battements/minute) et le débit artériel fémoral (exprimé en ml/min). Les variations de ces paramètres exprimées en pourcentages, par rapport aux témoins, sont données dans les tableaux II (administration intraveineuse) et III (administration intraduodénale) ci-après.
(§2) La vasodilatation périphérique se traduit dans ces circonstances par une augmentation du débit artériel fémoral. On dit, selon les présentes conditions opératoires, qu'un produit est un agent vasodilatateur périphérique si le débit artériel fémoral augmente d'au moins 30% par administration intraveineuse, d'une part, et par administration intraduodénale, d'autre part, sans que la variation de la pression artérielle soit supérieure à +10% ou inférieure à -10%.

The test system is the same in data set [4]. The data set can be described thus: Peripheral vasodilator properties, intraduodenal administration in the anaesthetised dog. Format: in vivo. The conditions noted are these: for effet sur la pression artérielle par voie I.D. / effet vasodilatateur par voie I.D.: result in words. The procedure: as §1, §2
The conditions of data set [5]: as indicated in British patent n° 1.325.192; cited from earlier work.
The test system of a further data set is escarres. The data set can be described thus: Clinical use in the treatment of bedsores. To be noted: in man. Format: in vivo, homme.

Some results are limits rather than exact numbers.

`O=C(CCCN1CCCC1)c1c(O)cc(O)cc1O` [(2,4,6-trihydroxyphényl)-(3-pyrrolidinopropyl)-cétone]: the “propriétés vasodilatatrices périphériques” value in data set [1] is given as “aussi intéressants que le LL 1656”.
Consider `COc1cc(O)c(C(=O)CCCN2CCCC2)c(OC)c1` [(2,4-diméthoxy-6-hydroxyphényl)-(3-pyrrolidinopropyl)-cétone], for which the “propriétés vasodilatatrices périphériques” value in data set [1] was “aussi intéressants que le LL 1656”.
For the molecule `COc1cc(O)cc(OC)c1C(=O)CCCN1CCCC1` [(2,6-diméthoxy-4-hydroxy-phényl)-(3-pyrrolidinopropyl)-cétone], the “propriétés vasodilatatrices périphériques” value in data set [1] was “dépourvus d'effets vasodilatateurs périphériques”.
With `COc1cc(O)c(C(=O)CCCN2CCCCC2)c(OC)c1` [CP1, chlorhydratede (2,4-diméthoxy-6-hydroxyphényl)-(3-pipé-ridinopropyl)-cétone], in data set [2], the “solubilité dans l'eau” value is recorded as “très soluble dans l'eau”. For the same molecule, in data set [3] (result in words, i.v. route), the “effet vasodilatateur par voie I.V.” value is “très faiblement vasodilatateur”. Also, in data set [4] (intraduodenal route), the “diminution de la pression artérielle par voie I.D.” value is given as over 10%, the “effet sur la pression artérielle par voie I.D.” value was “effet hypotenseur” and the “effet vasodilatateur par voie I.D.” value was “n'a guère d'effet vasodilatateur”.
On to `O=C(CCCN1CCCCC1)c1c(O)cc(O)cc1O` [CP2, chlorhydratede (2,4,6-trihydroxyphényl)-(3-pipéridinopropyl)-cétone], for which the “dose à partir de laquelle le produit est vasodilatateur par voie I.V.” value in data set [5] is at least 5 mg/kg. Also, in data set [4] (intraduodenal route), the “variation du débit artériel fémoral par voie I.D.” value is “+17%”, the “effet sur la pression artérielle par voie I.D.” value was “effet hypotenseur” and the “effet vasodilatateur par voie I.D.” value was “pratiquement dépourvu d'effet vasodilatateur”.
As for `COc1ccc(C(=O)CN2CCCCC2)c(OC)c1` [CP5, (2,4-dimé-thoxyphényl)-(pipéridinométhyl)-cétone], the change in vivo at 20 mg/kg in data set [4] (Canis lupus familiaris, intraduodenal, dose 20 mg/kg, versus controls, read-out: Variations en % Pression artérielle) turned out to be 0%.
Turning to `COc1cc(OC)c(C(=O)CCCN2CCCC2)c(OC)c1` [CP7, chlorhydratede (2,4,6-triméthoxyphényl)-(3-pyrrolidinopropyl)-cétone], in data set [3] (Canis lupus familiaris, intravenous, dose 6 mg/kg, versus controls, read-out: Variations en % Fréquence cardiaque), the change in vivo at 6 mg/kg is 0%. Further, in data set [3] (Canis lupus familiaris, intravenous, dose 1,5 mg/kg, versus controls, read-out: Variations en % Pression artérielle), the change in vivo at 1.5 mg/kg turned out to be 0%.
Take `COc1cc(O)cc(OC)c1C(=O)CCCN1CCCCC1` [Exemple 1, chlorhydratede (2,6-diméthoxy-4-hydroxyphényl)-(3-pipéridinopropyl)-cétone]: the “solubilité dans l'eau” value in data set [2] is recorded as “soluble dans l'eau”. Further, in data set [3] (text conclusion from tables II and III (i.v. and i.d.)), the “activité en tant que vasodilatateur périphérique (comparaison)” value is given as “aussi actif que le produit de référence CP7”. In addition, the “variation du débit artériel fémoral par voie I.V.” value in data set [3] (text summary over all i.v. doses (toujours)) is listed as “> +30%”. Also, the “résultats dans le traitement des escarres” value in the data set with escarres is given as “bons résultats”. Moreover, the “variation du débit artériel fémoral par voie I.D.” value in data set [4] (intraduodenal route) was “> +30%”.
For the molecule “(2,6-dihydroxy-4-méthoxyphényl)- ou (2,4-dihydroxy-6-méthoxyphényl)-(3-pyrrolidinopropyl)-cétone”, in data set [1], the “propriétés vasodilatatrices périphériques” value is “dépourvus d'effets vasodilatateurs périphériques”.
